The text below walks through data of publication PMC10130320, “Extracellular enzymes secreted in the mycelial block of Lentinula edodes during hyphal growth” (AMB Express, 2023).

Each structure is given as a SMILES string. Structures can show the parent of a compound that is named as a salt.

The target in one experiment is T1, Lcc5 (Lentinula edodes, UniProt R9WU11).
T1 construct: native, partially purified from sawdust medium (fraction P1-1), 68 kDa on SDS-PAGE
T1 sequence (R9WU11 22-515): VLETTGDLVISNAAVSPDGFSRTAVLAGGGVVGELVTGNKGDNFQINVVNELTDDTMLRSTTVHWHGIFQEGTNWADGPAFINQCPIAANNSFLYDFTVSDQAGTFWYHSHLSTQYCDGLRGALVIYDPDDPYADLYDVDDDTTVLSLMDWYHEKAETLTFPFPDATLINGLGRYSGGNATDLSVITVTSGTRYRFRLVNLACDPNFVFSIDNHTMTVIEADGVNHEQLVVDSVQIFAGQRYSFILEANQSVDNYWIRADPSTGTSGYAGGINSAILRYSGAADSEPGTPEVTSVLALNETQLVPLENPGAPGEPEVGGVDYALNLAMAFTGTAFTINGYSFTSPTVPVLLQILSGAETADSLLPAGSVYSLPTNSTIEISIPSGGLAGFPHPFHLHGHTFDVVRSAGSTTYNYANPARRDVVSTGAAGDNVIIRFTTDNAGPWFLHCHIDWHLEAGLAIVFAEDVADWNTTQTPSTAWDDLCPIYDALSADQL
Briefly: ABTS oxidation, absorbance at […] nm. Type of experiment: biochemical. The following applies: 1.25 mM ABTS; 50 mM sodium citrate pH 3.0; partially purified fraction P1-1.

The target in another experiment is T2, Lcc13 (Lentinula edodes, UniProt A0A0P0ZBE8).
T2 construct: native, partially purified from sawdust medium (fraction P2-2), 61 kDa on SDS-PAGE
T2 sequence (A0A0P0ZBE8 20-520): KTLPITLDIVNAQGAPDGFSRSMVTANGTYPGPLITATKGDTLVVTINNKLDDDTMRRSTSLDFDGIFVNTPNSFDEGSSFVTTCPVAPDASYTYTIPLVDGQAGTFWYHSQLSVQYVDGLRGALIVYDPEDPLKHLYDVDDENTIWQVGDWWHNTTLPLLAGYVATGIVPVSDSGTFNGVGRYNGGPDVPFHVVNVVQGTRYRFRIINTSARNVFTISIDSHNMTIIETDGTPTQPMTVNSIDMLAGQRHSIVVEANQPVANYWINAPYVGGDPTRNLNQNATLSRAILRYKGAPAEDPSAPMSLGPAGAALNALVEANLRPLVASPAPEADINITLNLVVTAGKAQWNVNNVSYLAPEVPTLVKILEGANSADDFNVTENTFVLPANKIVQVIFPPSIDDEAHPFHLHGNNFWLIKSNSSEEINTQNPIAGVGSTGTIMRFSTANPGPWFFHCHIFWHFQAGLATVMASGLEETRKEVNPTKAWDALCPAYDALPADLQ
Briefly: ABTS oxidation, absorbance at […] nm. It counts as biochemical. The following applies: 1.25 mM ABTS; 50 mM sodium citrate pH 3.0; partially purified fraction P2-2.

Regarding `CCn1c(=NN=c2sc3cc(S(=O)(=O)O)ccc3n2CC)sc2cc(S(=O)(=O)O)ccc21` [ABTS, 2,2-azino-bis (3-ethylbenzothiazoline-6-sulfonic acid) diammonium salt], the “ABTS oxidation, absorbance at 420 nm” value at Lcc5 and at Lcc13 was “the Lcc purification was performed based on the enzymatic activity for ABTS” in each case.
